Results from patent publication US8492334B2, “Sustained intraocular delivery of drugs from biodegradable polymeric microparticles” (Yale University, priority 2007, dated 2013).
Structures can show the parent of a compound that is named as a salt. Where two headings read alike, the source gives them in different places.

Assays:
[1] = Release of timolol maleate in vitro from microspheres; format: physicochemical; details: 20% w/w timolol maleate to PLGA; AOT 147 mM in first emulsion step, or Span 20 in its place
Experimental: In 1.5 ml eppendorf tubes, 10 mg of timolol containing or blank microparticles were reconstituted with 1 ml of phosphate buffered saline (PBS). Samples were prepared in triplicate. The samples were incubated at 37° C. on a labquake rotating shaker (Barnstead/Thermolyne; Dubuque, Iowa, USA). At specific time points (1, 3, 5, and 8 hours; 1, 2, 3, 5, and 7 days; and once every 7 days thereafter until no pellets remained), the samples were centrifuged and the supernatant collected. 1 ml of PBS was added to the replace the withdrawn supernatant and the microparticles were resuspended and returned to the shaker. Supernatants for each of the sets of microspheres was frozen and stored at −80° C. for subsequent analysis using UV spectroscopy at 293 nm.
The drug loading was 20% weight of timolol maleate to weight of polymer. The particles were stored in deionized water at 37° C. Following centrifugation at predetermined time points, the supernatant was extracted and timolol maleate content measured. FIG. 3 depicts the same values expressed as a percentage of the loading values in FIG. 1.

[2] = administered topically as a solution; cited from earlier work
[3] = eye drops, cited from earlier work
[4] = system: adult rat retinal ganglion cells; details: cited from earlier work; for effect on survival of RGCs after axotomy: intraocular administration; for delay of onset of axotomy-induced RGC death: intraocular administration at the time of axotomy

Row | Molecule | effect on survival of RGCs after axotomy [4] | delay of onset of axotomy-induced RGC death [4] | other results
1 | Span 20 |  |  | effect of added surfactant on loading or release of timolol maleate [1]: no significant effect
2 | CC(C)(C)NC[C@H](O)COc1nsnc1N1CCOCC1 [Timolol maleate] |  |  | average IOP reduction [2]: 20-35%; systemic absorption of the administered drug [3]: approximately 80%; topically administered drug reaching the aqueous humor [3]: less than 1%; systemic absorption of the administered drug ([3]; listed as timolol maleate): ~80%
3 | NT-3: neurotrophic factor in the NGF family of neurotrophins (protein, UniProt P20783 139-257, looked up) Neurotrophin-3: YAEHKSHRGEYSVCDSESLWVTDKSSAIDIRGHQVTVLGEIKTGNSPVKQYFYETRCKEARPVKNGCRGIDDKHWNSQCKTSQTYVRALTSENNKLVGWRWIRIDTSCVCALSRKIGRT | did not modify the survival of RGCs |  | 
4 | NT-4: neurotrophic factor in the NGF family of neurotrophins (protein, UniProt P34130 81-210, looked up) Neurotrophin-4: GVSETAPASRRGELAVCDAVSGWVTDRRTAVDLRGREVEVLGEVPAAGGSPLRQYFFETRCKADNAEEGGPGAGGGGCRGVDRRHWVSECKAKQSYVRALTADAQGRVGWRWIRIDTACVCTLLSRTGRA | neuroprotective effect | approximately 3 days | 
5 | BDNF: brain-derived neurotrophic factor, a protein neurotrophic factor (protein, UniProt P23560 19-247, looked up) Neurotrophic factor BDNF …: APMKEANIRGQGGLAYPGVRTHGTLESVNGPKAGSRGLTSLADTFEHVIEELLDEDQKVRPNEENNKDADLYTSRVMLSSQVPLEPPLLFLLEEYKNYLDAANMSMRVRRHSDPARRGELSVCDSISEWVTAADKKTAVDMSGGTVTVLEKVPVSKGQLKQYFYETKCNPMGYTKEGCRGIDKRHWNSQCRTTQSYVRALTMDSKKRIGWRFIRIDTSCVCTLTIKRGR | neuroprotective effect | approximately 3 days | 
